Assay results published in patent US8993260B2, “Fluorescence-based viability staining method using a membrane permeable flourescent dye and membrane impermeable fluorescence quencher” (Charles River Laboratories, Inc., priority 2012, dated 2015).

How the values were obtained:
[1] = test system: viable and non-viable E. coli; assay: Viability staining of mixed viable/non-viable E. coli in solution: fluorescent probe and two PET quenchers; assay type: cell-based; details: 0.005 mM Oxazine 170 perchlorate, 0.4 mM p-Sulfonic calix[6]arene, 100 mM sodium ascorbate in PBS; about 5 min
Description: The viable and heat killed E. coli were preparations were prepared as described in Example 1. The heat killed E. coli suspension was then combined with the viable cell suspension and mixed by vortexing. The resulting cell suspension served as the viable and non-viable E. coli solution. A fluorescent probe-quencher stain was prepared as a solution consisting of 0.005 mM Oxazine 170 perchlorate (Sigma-Aldrich, St. Louis, Mo.), 0.4 mM p-Sulfonic calix[6]arene (TCI America, Portland, Oreg.), 100 mM Sodium ascorbate (Sigma-Aldrich, St. Louis, Mo.) in PBS. The viable and non-viable E. coli suspension was then diluted 1:1000 into the fluorescent probe-quencher solution to stain the cells. After incubation for approximately 5 minutes, a droplet of the stained cell solution was placed onto a microscope slide and imaged on a fluorescent microscope (Carl Zeiss, LLC, Thornwood, N.Y.). FIGS. 20A and 20B show a combined image of the viable and non-viable stained E. coli captured under phase contrast (FIG. 20A) as well as fluorescent conditions (excitation 575-625 nm, emission 660-710 nm) (FIG. 20B). The viable and non-viable cells were indistinguishable in phase contrast but under fluorescent conditions the viable cells were brightly fluorescent whereas the non viable cells were not.

[2] = test system: viable and heat killed E. coli; assay: Viability staining of E. coli captured on a membrane: fluorescent probe and quencher wash, fluorescence microscopy; assay type: cell-based; details: 0.005 mM Oxazine 170 perchlorate stain, then 10 mM sodium ascorbate wash
Description: Viable and non-viable E. coli cell fractions were prepared by picking a colony cultured on a conventional media plate and then transferring the cells into Phosphate Buffered Saline (PBS). The cells then were suspended by vortexing and then were further diluted in PBS to give a turbidity equivalent to a 1.0 McFarland standard. This stock solution served as the live cell fraction. An aliquot of the live cell fraction was transferred to a glass tube that was placed into a boiling water bath for about 15 minutes to heat kill the E. coli. The tube was removed from the bath and allowed to cool to room temperature. This heat killed suspension served as the dead cell fraction. A fluorescent stain solution was prepared as a 0.005 mM solution of Oxazine 170 perchlorate (Sigma-Aldrich, St. Louis, Mo.) in PBS containing a 1:100,000 dilution of 10% w/v 0.8 μm Sky Blue latex fluorescent particles (Spherotech, Lake Forest, Ill.). A separate quencher wash solution was prepared as a 10 mM Sodium ascorbate (Sigma-Aldrich, St. Louis, Mo.) solution in PBS. […] The cells then were imaged using a fluorescent microscope (Carl Zeiss, LLC—Thornwood, N.Y.) with an excitation of 575 nm-625 nm and measured emission of 660 nm-710 nm. […]

| SMILES | Permeation of the quencher through non-viable cell membranes and quenching of fluorescence [1] | Permeation of the quencher into heat killed cells (quenching of fluorescent signal) ([2]; heat killed E. coli on 0.2 μm membrane) | Permeation of the quencher into viable cells ([2]; live E. coli on 0.2 μm membrane, ex 575-625 nm, em 660-710 nm) |
| --- | --- | --- | --- |
| O=S(=O)(O)c1cc2c(O)c(c1)Cc1cc(S(=O)(=O)O)cc(c1O)Cc1cc(S(=O)(=O)O)cc(c1O)Cc1cc(S(=O)(=O)O)cc(c1O)Cc1cc(S(=O)(=O)O)cc(c1O)Cc1cc(S(=O)(=O)O)cc(c1O)C2 [p-Sulfonic calix[6]arene, 4- Sulfocalix [6]arene] | permeated the non-viable cell membranes resulting in an effective quenching of fluorescence | – | – |
| O=C1O[C@H]([C@@H](O)CO)C([O-])=C1O.[Na+] [sodium ascorbate, Sodium Ascorbate] | permeated the non-viable cell membranes resulting in an effective quenching of fluorescence | permeated | excluded from the viable cells |
